# In patent publication US20120184542A1, “PYRIDO PYRIMIDINES” (priority 2011, published 2012):
# Counter-ions that a name gives are not always drawn. Like-named read-outs stand apart in the source and are kept apart here.
# Assays:
# [1] = test system: SW620 human colon cancer cells; experiment: SW620 Cell Viability Assay; format: cell-based; conditions: CellTiter-Glo, 4 days incubation, read-out: Cellular EC50 (μM) SW620
# Experimental: Some cells (S—) were allowed to attach for 24 hrs, serum starved for 48 hrs, and then followed with drug treatments Test Compound Solutions were Prepared in Regular Corresponding Media Supplemented with Serum 2. […] Viability Assay: This assay was performed as follows: • Transfer 50 μL of test compound solution per well from the test compound plate onto the cell plate prepared in Step #1. • Mix the plate with treated cells by pipetting up and down three times with 200 μL multi-channel pipette. • Incubate the cells in 5% CO2 incubator @ 37° C. for 4 days. • Run the CellTiter-Glo™ Luminescent Cell Viability Assay.
# Human DYRK1B = target: T1, Human DYRK1B (Homo sapiens, UniProt Q9Y463); experiment: DYRK1B Kinase TR-FRET (IMAP-Tb) Assay; format: biochemical; conditions: TR-FRET (IMAP-Tb); ATP 70 μM; 37° C. 60 minutes; read-out: Enzyme IC50 (μM) DYRK1B
# T1 construct: purchased Invitrogen PR8350B (former PV4649)
# Human DYRK1A = target: T2, Human DYRK1A (Homo sapiens, UniProt Q13627); experiment: DYRK1A Kinase TR-FRET (IMAP-Tb) Assay; format: biochemical; conditions: TR-FRET (IMAP-Tb); ATP 70 μM; 37° C. 60 minutes; read-out: Enzyme IC50 (μM) DYRK1A
# T2 construct: purchased Invitrogen PV3997
# Method in brief: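 Recombinant human DYRK1A phosphorylated fluorescent substrate peptide (1.0 μM) with ATP in 10 mM HEPES pH 7.0, 50 mM NaCl, 5 mM MgCl2, 1 mM DTT, 1 mM NaVO4, 0.02% BSA for 60 min at 37 °C. Phosphopeptide detected by IMAP terbium TR-FRET; IC50 reported.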
# T1 sequence (Q9Y463 whole entry): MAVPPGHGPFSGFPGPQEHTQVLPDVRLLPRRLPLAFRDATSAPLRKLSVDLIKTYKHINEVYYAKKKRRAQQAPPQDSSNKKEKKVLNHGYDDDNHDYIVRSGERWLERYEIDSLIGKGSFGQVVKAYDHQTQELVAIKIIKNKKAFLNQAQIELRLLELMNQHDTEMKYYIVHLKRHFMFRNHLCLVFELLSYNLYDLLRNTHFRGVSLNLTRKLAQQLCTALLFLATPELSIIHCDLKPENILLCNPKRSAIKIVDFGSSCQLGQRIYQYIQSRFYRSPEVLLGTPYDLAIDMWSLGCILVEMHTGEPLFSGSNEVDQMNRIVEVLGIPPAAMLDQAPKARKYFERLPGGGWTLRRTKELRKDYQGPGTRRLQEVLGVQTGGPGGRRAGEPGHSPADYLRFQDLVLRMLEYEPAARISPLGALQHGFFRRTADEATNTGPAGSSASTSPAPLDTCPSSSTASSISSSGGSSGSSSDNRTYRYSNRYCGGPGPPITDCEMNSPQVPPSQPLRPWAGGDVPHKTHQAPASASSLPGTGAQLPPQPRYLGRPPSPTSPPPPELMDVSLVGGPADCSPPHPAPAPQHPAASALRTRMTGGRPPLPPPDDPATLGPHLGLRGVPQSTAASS
smiles,measurement,setting,value
"O=C(NCc1cccc(Cl)c1)c1ccc(Cl)c(NC(=O)c2cc3cnc(NCCN4CCCC4)nc3[nH]c2=O)c1 [Example 89, 7-Oxo-2-(2-pyrrolidin-1-yl-ethylamino)-7,8-dihydro-pyrido[2,3-d]pyrimidine-6-carboxylic acid [2-chloro-5-(3-chloro-benzylcarbamoyl)-phenyl]amide]",EC50,"[1]; Homo sapiens, SW-620, 96 h",0.192 µM
same,IC50,Human DYRK1B,0.023 µM
same,IC50,Human DYRK1A,0.0189 µM
"O=C(NCc1cccc(Cl)c1)c1ccc(Cl)c(NC(=O)c2cc3cnc(NCCCN4CCOCC4)nc3[nH]c2=O)c1 [Example 90, 2-(3-Morpholin-4-yl-propylamino)-7-oxo-7,8-dihydro-pyrido[2,3-d]pyrimidine-6-carboxylic acid [2-chloro-5-(3-chloro-benzylcarbamoyl)-phenyl]amide]",EC50,"[1]; Homo sapiens, SW-620, 96 h",0.312 µM
same,IC50,Human DYRK1B,0.0523 µM
same,IC50,Human DYRK1A,0.0113 µM
"O=C(NCc1cccc(Cl)c1)c1ccc(Cl)c(NC(=O)c2cc3cnc(N[C@H]4CC[C@H](O)CC4)nc3[nH]c2=O)c1 [Example 94, 2-(4-Hydroxy-cyclohexylamino)-7-oxo-7,8-dihydro-pyrido[2,3-d]pyrimidine-6-carboxylic acid [2-chloro-5-(3-chloro-benzylcarbamoyl)-phenyl]amide]",EC50,"[1]; Homo sapiens, SW-620, 96 h",1.13 µM
same,IC50,Human DYRK1B,0.0622 µM
same,IC50,Human DYRK1A,0.0245 µM
"O=C(NCc1cccc(Cl)c1)c1ccc(Cl)c(NC(=O)c2cc3cnc(N[C@H]4CC[C@@H](O)CC4)nc3[nH]c2=O)c1 [Example 95, 2-(4-Hydroxy-cyclohexylamino)-7-oxo-7,8-dihydro-pyrido[2,3-d]pyrimidine-6-carboxylic acid [2-chloro-5-(3-chloro-benzylcarbamoyl)-phenyl]amide]",EC50,"[1]; Homo sapiens, SW-620, 96 h",0.406 µM
same,IC50,Human DYRK1B,0.012 µM
same,IC50,Human DYRK1A,0.0257 µM
"NC1CCN(c2ncc3cc(C(=O)Nc4cc(C(=O)NCc5cccc(Cl)c5)ccc4Cl)c(=O)[nH]c3n2)CC1 [Example 97, 2-(4-Amino-piperidin-1-yl)-7-oxo-7,8-dihydro-pyrido[2,3-d]pyrimidine-6-carboxylic acid [2-chloro-5-(3-chloro-benzylcarbamoyl)-phenyl]-amide]",EC50,"[1]; Homo sapiens, SW-620, 96 h",0.0662 µM
same,IC50,Human DYRK1B,0.0819 µM
same,IC50,Human DYRK1A,0.0448 µM
"CN1CCN(CCNc2ncc3cc(C(=O)Nc4cc(C(=O)NCc5cccc(Cl)c5)ccc4Cl)c(=O)[nH]c3n2)CC1 [Example 99, 2-[2-(4-Methyl-piperazin-1-yl)-ethylamino]-7-oxo-7,8-dihydro-pyrido[2,3-d]pyrimidine-6-carboxylic acid [2-chloro-5-(3-chloro-benzylcarbamoyl)-phenyl]amide]",EC50,[1],0.0276 µM
same,IC50,Human DYRK1B,0.0347 µM
same,IC50,Human DYRK1A,0.0202 µM
"CN1CCN(CCNc2ncc3cc(C(=O)Nc4cc(C(=O)NCc5cccc(Cl)c5)ccc4Cl)c(=O)[nH]c3n2)CC1 [Example 100, N-(2-chloro-5-(3-chlorobenzylcarbamoyl)phenyl)-2-(2-(4-methylpiperazin-1-yl)ethylamino)-7-oxo-7,8-dihydropyrido[2,3-d]pyrimidine-6-carboxamide hydrochloride]",EC50,[1]; hydrochloride,0.068 µM
same,IC50,Human DYRK1B,0.142 µM
same,IC50,Human DYRK1A,0.0381 µM
"CN1CCN(CCCNc2ncc3cc(C(=O)Nc4cc(C(=O)NCc5cccc(Cl)c5)ccc4Cl)c(=O)[nH]c3n2)CC1 [Example 101, 2-[3-(4-Methyl-piperazin-1-yl)-propylamino]-7-oxo-7,8-dihydro-pyrido[2,3-d]pyrimidine-6-carboxylic acid [2-chloro-5-(3-chloro-benzylcarbamoyl)-phenyl]amide]",EC50,"[1]; Homo sapiens, SW-620, 96 h",0.0663 µM
same,IC50,Human DYRK1B,0.0221 µM
same,IC50,Human DYRK1A,0.0263 µM
"CN1CCN(CCCNc2ncc3cc(C(=O)Nc4cc(C(=O)NCc5cccc(Cl)c5)ccc4Cl)c(=O)[nH]c3n2)CC1 [Example 102, 2-[3-(4-Methyl-piperazin-1-yl)-propylamino]-7-oxo-7,8-dihydro-pyrido[2,3-d]pyrimidine-6-carboxylic acid [2-chloro-5-(3-chloro-benzylcarbamoyl)-phenyl]-amide hydrochloride]",EC50,[1]; hydrochloride,0.0531 µM
same,IC50,Human DYRK1B,0.047 µM
same,IC50,Human DYRK1A,0.0356 µM
"O=C(NCc1cccc(Cl)c1)c1ccc(Cl)c(NC(=O)c2cc3cnc(NCCO)nc3[nH]c2=O)c1 [Example 103, N-(2-chloro-5-(3-chlorobenzylcarbamoyl)phenyl)-2-(2-hydroxyethylamino)-7-oxo-7,8-dihydropyrido[2,3-d]pyrimidine-6-carboxamide]",EC50,"[1]; Homo sapiens, SW-620, 96 h",> 10 µM
same,IC50,Human DYRK1B,0.0291 µM
same,IC50,Human DYRK1A,0.00974 µM
"CN1CCC(CCNc2ncc3cc(C(=O)Nc4cc(C(=O)NCc5cccc(Cl)c5)ccc4Cl)c(=O)[nH]c3n2)CC1 [Example 104, N-(2-chloro-5-(3-chlorobenzylcarbamoyl)phenyl)-2-(2-(1-methylpiperidin-4-yl)ethylamino)-7-oxo-7,8-dihydropyrido[2,3-d]pyrimidine-6-carboxamide]",EC50,"[1]; Homo sapiens, SW-620, 96 h",0.0787 µM
same,IC50,Human DYRK1B,0.0613 µM
same,IC50,Human DYRK1A,0.0226 µM
"CSc1ncc2cc(C(=O)Nc3cc(C(=O)NC(CN)c4ccccc4)ccc3Cl)c(=O)[nH]c2n1 (stereo not drawn) [Example 105, N-(5-(2-amino-1-phenylethylcarbamoyl)-2-chlorophenyl)-2-(methylthio)-7-oxo-7,8-dihydropyrido[2,3-d]pyrimidine-6-carboxamide]",EC50,"[1]; Homo sapiens, SW-620, 96 h",0.296 µM
same,IC50,Human DYRK1B,0.0099 µM
same,IC50,Human DYRK1A,0.0096 µM
"CSc1ncc2cc(C(=O)Nc3cc(C(=O)NC(CCN)c4ccccc4)ccc3Cl)c(=O)[nH]c2n1 (stereo not drawn) [Example 107, 2-Methylsulfanyl-7-oxo-7,8-dihydro-pyrido[2,3-d]pyrimidine-6-carboxylic acid [5-(3-amino-1-phenyl-propylcarbamoyl)-2-chloro-phenyl]-amide; hydrochloride]",EC50,"[1]; Homo sapiens, SW-620, 96 h",0.236 µM
same,IC50,Human DYRK1B,0.0105 µM
same,IC50,Human DYRK1A,0.00467 µM
"CC(=O)N1CCN(c2ncc3cc(C(=O)Nc4cc(C(=O)NCc5cccc(Cl)c5)ccc4Cl)c(=O)[nH]c3n2)CC1 [Example 108, 2-(4-Acetylpiperazin-1-yl)-N-(2-chloro-5-(3-chlorobenzylcarbamoyl)phenyl)-7-oxo-7,8-dihydropyrido[2,3-d]pyrimidine-6-carboxamide]",EC50,"[1]; Homo sapiens, SW-620, 96 h",0.528 µM
same,IC50,Human DYRK1B,0.056 µM
same,IC50,Human DYRK1A,0.114 µM
"Cc1ncc2cc(C(=O)Nc3cc(C(=O)NC(CN)c4ccccc4)ccc3Cl)c(=O)[nH]c2n1 (stereo not drawn) [Example 114, N-(5-(2-Amino-1-phenylethylcarbamoyl)-2-chlorophenyl)-2-methyl-7-oxo-7,8-dihydropyrido[2,3-d]pyrimidine-6-carboxamide hydrochloride]",EC50,"[1]; Homo sapiens, SW-620, 96 h",1.32 µM
same,IC50,Human DYRK1B,0.0146 µM
same,IC50,Human DYRK1A,0.0373 µM
"N[C@H]1CC[C@@H](Nc2ncc3cc(C(=O)Nc4cc(C(=O)NCc5cccc(Cl)c5)ccc4Cl)c(=O)[nH]c3n2)CC1 [Example 118, 2-((1s,4 s)-4-Aminocyclohexylamino)-N-(2-chloro-5-(3-chlorobenzylcarbamoyl)phenyl)-7-oxo-7,8-dihydropyrido[2,3-d]pyrimidine-6-carboxamide hydrochloride]",EC50,"[1]; Homo sapiens, SW-620, 96 h",0.438 µM
same,IC50,Human DYRK1B,0.0767 µM
same,IC50,Human DYRK1A,0.0569 µM
"O=C(NCc1cccc(Cl)c1)c1ccc(Cl)c(NC(=O)c2cc3cnc(N4CCNCC4)nc3[nH]c2=O)c1 [Example 119, N-(2-Chloro-5-(3-chlorobenzylcarbamoyl)phenyl)-7-oxo-2-(piperazin-1-yl)-7,8-dihydropyrido[2,3-d]pyrimidine-6-carboxamide hydrochloride]",EC50,"[1]; Homo sapiens, SW-620, 96 h",0.152 µM
same,IC50,Human DYRK1B,0.135 µM
same,IC50,Human DYRK1A,0.044 µM
